From PubChem BioAssay (NCI)
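Following 48 hours of exposure in 96-well plates, responses at five concentrations were used to interpolate endpoints linearly. Here, GI50 denotes the concentration required for 50% inhibition of growth. TGI marks complete inhibition of growth.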

Tests used:
Assay in all cases: NCI-60 cell line screen, 48 h
MDA-MB-435 = test system: MDA-MB-435
SN12C renal = test system: SN12C renal
CAKI-1 renal = test system: CAKI-1 renal
LOX IMVI melanoma = test system: LOX IMVI melanoma
786-0 renal = test system: 786-0 renal
A549 NSCLC = test system: A549 NSCLC
BT-549 breast = test system: BT-549 breast
KM12 colon = test system: KM12 colon
MDA-MB-231 breast = test system: MDA-MB-231 breast
OVCAR-5 ovarian = test system: OVCAR-5 ovarian
SNB-19 CNS = test system: SNB-19 CNS
SK-MEL-5 melanoma = test system: SK-MEL-5 melanoma
SW-620 colon = test system: SW-620 colon
NCI-H226 lung = test system: NCI-H226 lung
EKVX NSCLC = test system: EKVX NSCLC
PC-3 prostate = test system: PC-3 prostate
HT29 colon = test system: HT29 colon
SF-295 CNS = test system: SF-295 CNS
DMS 273 small cell lung = test system: DMS 273 small cell lung
SR leukemia = test system: SR leukemia
DLD-1 colon = test system: DLD-1 colon
KM20L2 colon = test system: KM20L2 colon
HCT-15 colon = test system: HCT-15 colon
MCF7 breast = test system: MCF7 breast
HCC-2998 colon = test system: HCC-2998 colon
UACC-62 melanoma = test system: UACC-62 melanoma
NCI/ADR-RES ovarian = test system: NCI/ADR-RES ovarian
HL-60(TB) leukemia = test system: HL-60(TB) leukemia
COLO 205 colon = test system: COLO 205 colon
OVCAR-4 ovarian = test system: OVCAR-4 ovarian
HOP-92 NSCLC = test system: HOP-92 NSCLC
UO-31 renal = test system: UO-31 renal
DU-145 prostate = test system: DU-145 prostate
SK-MEL-28 melanoma = test system: SK-MEL-28 melanoma
M19-MEL melanoma = test system: M19-MEL melanoma
OVCAR-8 ovarian = test system: OVCAR-8 ovarian
M14 melanoma = test system: M14 melanoma
SK-MEL-2 melanoma = test system: SK-MEL-2 melanoma
MOLT-4 leukemia = test system: MOLT-4 leukemia
HOP-62 NSCLC = test system: HOP-62 NSCLC
DMS 114 small cell lung = test system: DMS 114 small cell lung
RXF 393 renal = test system: RXF 393 renal
NCI-H522 lung = test system: NCI-H522 lung
SK-OV-3 ovarian = test system: SK-OV-3 ovarian
SF-539 CNS = test system: SF-539 CNS
UACC-257 melanoma = test system: UACC-257 melanoma
NCI-H23 lung = test system: NCI-H23 lung
A498 renal = test system: A498 renal
ACHN renal = test system: ACHN renal
LXFL 529 NSCLC = test system: LXFL 529 NSCLC
U251 CNS = test system: U251 CNS
SNB-75 CNS = test system: SNB-75 CNS
K-562 leukemia = test system: K-562 leukemia
HOP-18 NSCLC = test system: HOP-18 NSCLC
NCI-H460 lung = test system: NCI-H460 lung
HCT-116 colon = test system: HCT-116 colon
XF 498 CNS = test system: XF 498 CNS
T-47D breast = test system: T-47D breast
HS 578T breast = test system: HS 578T breast
RPMI-8226 leukemia = test system: RPMI-8226 leukemia
CCRF-CEM leukemia = test system: CCRF-CEM leukemia
SF-268 CNS = test system: SF-268 CNS
OVCAR-3 ovarian = test system: OVCAR-3 ovarian
TK-10 renal = test system: TK-10 renal
MALME-3M melanoma = test system: MALME-3M melanoma
IGROV1 ovarian = test system: IGROV1 ovarian

C=COCCCOc1ccccc1
GI50 (MDA-MB-435): > 100 µM | TGI (MDA-MB-435): > 100 µM | TGI (SN12C renal): > 100 µM | TGI (CAKI-1 renal): > 100 µM | TGI (LOX IMVI melanoma): > 100 µM | GI50 (786-0 renal): > 100 µM | TGI (786-0 renal): > 100 µM | TGI (A549 NSCLC): > 100 µM | GI50 (BT-549 breast): > 100 µM | TGI (BT-549 breast): > 100 µM | TGI (KM12 colon): > 100 µM | GI50 (MDA-MB-231 breast): > 100 µM | TGI (MDA-MB-231 breast): > 100 µM | TGI (OVCAR-5 ovarian): > 100 µM | TGI (SNB-19 CNS): > 100 µM | TGI (SK-MEL-5 melanoma): > 100 µM | TGI (SW-620 colon): > 100 µM | TGI (NCI-H226 lung): > 100 µM | TGI (EKVX NSCLC): > 100 µM | GI50 (PC-3 prostate): > 100 µM | TGI (PC-3 prostate): > 100 µM | TGI (HT29 colon): > 100 µM | GI50 (SF-295 CNS): > 100 µM | TGI (SF-295 CNS): > 100 µM | TGI (DMS 273 small cell lung): > 100 µM | TGI (SR leukemia): > 100 µM | TGI (DLD-1 colon): > 100 µM | TGI (KM20L2 colon): > 100 µM | TGI (HCT-15 colon): > 100 µM | GI50 (MCF7 breast): > 100 µM | TGI (MCF7 breast): > 100 µM | TGI (HCC-2998 colon): > 100 µM | GI50 (UACC-62 melanoma): > 100 µM | TGI (UACC-62 melanoma): > 100 µM | GI50 (NCI/ADR-RES ovarian): > 100 µM | TGI (NCI/ADR-RES ovarian): > 100 µM | TGI (HL-60(TB) leukemia): > 100 µM | TGI (COLO 205 colon): > 100 µM | TGI (OVCAR-4 ovarian): > 100 µM | GI50 (HOP-92 NSCLC): > 100 µM | TGI (HOP-92 NSCLC): > 100 µM | TGI (UO-31 renal): > 100 µM | GI50 (DU-145 prostate): > 100 µM | TGI (DU-145 prostate): > 100 µM | TGI (SK-MEL-28 melanoma): > 100 µM | TGI (M19-MEL melanoma): > 100 µM | TGI (OVCAR-8 ovarian): > 100 µM | TGI (M14 melanoma): > 100 µM | TGI (SK-MEL-2 melanoma): > 100 µM | TGI (MOLT-4 leukemia): > 100 µM | TGI (HOP-62 NSCLC): > 100 µM | TGI (DMS 114 small cell lung): > 100 µM | TGI (RXF 393 renal): > 100 µM | TGI (NCI-H522 lung): > 100 µM | GI50 (SK-OV-3 ovarian): > 100 µM | TGI (SK-OV-3 ovarian): > 100 µM | TGI (SF-539 CNS): > 100 µM | GI50 (UACC-257 melanoma): > 100 µM | TGI (UACC-257 melanoma): > 100 µM | TGI (NCI-H23 lung): > 100 µM | GI50 (A498 renal): > 100 µM | TGI (A498 renal): > 100 µM | TGI (ACHN renal): > 100 µM | TGI (LXFL 529 NSCLC): > 100 µM | TGI (U251 CNS): > 100 µM | GI50 (SNB-75 CNS): > 100 µM | TGI (SNB-75 CNS): > 100 µM | TGI (K-562 leukemia): > 100 µM | TGI (HOP-18 NSCLC): > 100 µM | TGI (NCI-H460 lung): > 100 µM | TGI (HCT-116 colon): > 100 µM | TGI (XF 498 CNS): > 100 µM | GI50 (T-47D breast): > 100 µM | TGI (T-47D breast): > 100 µM | GI50 (HS 578T breast): > 100 µM | TGI (HS 578T breast): > 100 µM | TGI (RPMI-8226 leukemia): > 100 µM | TGI (CCRF-CEM leukemia): > 100 µM | TGI (SF-268 CNS): > 100 µM | TGI (OVCAR-3 ovarian): > 100 µM | TGI (TK-10 renal): > 100 µM | TGI (MALME-3M melanoma): > 100 µM

Cc1ccc(S(=O)(=O)N(CC(=O)O)c2ccccc2)cc1
TGI (SN12C renal): > 100 µM | TGI (CAKI-1 renal): > 100 µM | TGI (LOX IMVI melanoma): > 100 µM | TGI (786-0 renal): > 100 µM | TGI (A549 NSCLC): > 100 µM | TGI (KM12 colon): > 100 µM | TGI (OVCAR-5 ovarian): > 100 µM | TGI (SNB-19 CNS): > 100 µM | TGI (SK-MEL-5 melanoma): > 100 µM | TGI (SW-620 colon): > 100 µM | TGI (EKVX NSCLC): > 100 µM | TGI (HT29 colon): > 100 µM | TGI (SF-295 CNS): > 100 µM | TGI (DMS 273 small cell lung): > 100 µM | TGI (DLD-1 colon): > 100 µM | TGI (KM20L2 colon): > 100 µM | TGI (HCT-15 colon): > 100 µM | TGI (HCC-2998 colon): > 100 µM | TGI (UACC-62 melanoma): > 100 µM | TGI (HL-60(TB) leukemia): > 100 µM | TGI (COLO 205 colon): > 100 µM | TGI (OVCAR-4 ovarian): > 100 µM | TGI (HOP-92 NSCLC): > 100 µM | TGI (UO-31 renal): > 100 µM | TGI (SK-MEL-28 melanoma): > 100 µM | TGI (M19-MEL melanoma): > 100 µM | TGI (OVCAR-8 ovarian): > 100 µM | TGI (M14 melanoma): > 100 µM | TGI (SK-MEL-2 melanoma): > 100 µM | TGI (MOLT-4 leukemia): > 100 µM | TGI (RXF 393 renal): > 100 µM | TGI (NCI-H522 lung): > 100 µM | TGI (SK-OV-3 ovarian): > 100 µM | TGI (SF-539 CNS): > 100 µM | TGI (UACC-257 melanoma): > 100 µM | TGI (NCI-H23 lung): > 100 µM | TGI (A498 renal): > 100 µM | TGI (ACHN renal): > 100 µM | TGI (IGROV1 ovarian): > 100 µM | TGI (LXFL 529 NSCLC): > 100 µM | TGI (U251 CNS): > 100 µM | TGI (SNB-75 CNS): > 100 µM | TGI (K-562 leukemia): > 100 µM | TGI (HOP-18 NSCLC): > 100 µM | TGI (NCI-H460 lung): > 100 µM | TGI (RPMI-8226 leukemia): > 100 µM | TGI (CCRF-CEM leukemia): > 100 µM | TGI (SF-268 CNS): > 100 µM | TGI (OVCAR-3 ovarian): > 100 µM | TGI (TK-10 renal): > 100 µM | TGI (MALME-3M melanoma): > 100 µM
